According to PMC3474771, “Evaluation of 14 Organic Solvents and Carriers for Screening Applications in Zebrafish Embryos and Larvae” (PLoS ONE, 2012):
Read-outs that look alike come from different tables or passages of the source.

Legend:
[1] = system: zebrafish embryos and larvae; conditions: for Maximum-tolerated concentration (MTC): highest concentration with no phenotypic abnormalities, followed to 9 dpf
Experimental: Zebrafish embryos of the AB wild-type strain (originally obtained from the Zebrafish International Resource Center, Eugene, Oregon, USA) were raised at 28°C. Zebrafish husbandry, embryo collection, and embryo and larva maintenance were performed as described, [21]. Toxicity assays were standardly performed in 24-well microtiter plates (wrapped with Parafilm to limit solvent evaporation) using 10 embryos per well in 1 ml of 0.3× Danieau's medium (17 mM NaCl, 2 mM KCl, 0.12 mM MgSO4, 1.8 mM Ca(NO3)2 and 1.5 mM HEPES, pH 7.6). Each experiment was repeated 3 times for a total of 30 embryos or larvae analyzed per solvent per developmental staged tested. Data were only recorded for experiments in which the percentage of normal embryos or larvae in the control group was at least 90%. […] In determining the maximum tolerated concentration (MTC) for each solvent and carrier, all post-exposure embryos and larvae were allowed to develop in larva medium to 9 dpf, so as to detect any deleterious effects appearing after this 24-hour window. Solvents and carriers were obtained from the following suppliers: acetone (Chemlab, Zedelgem, Belgium), acetonitrile (Acros Organics, Geel, Belgium), albumin (BSA, Sigma-Aldrich, Bornem, Belgium), butanone (Riedel-de Haën, Seelze, Germany), cyclodextrin (2- hydroxypropyl-beta-cyclodextrin, Sigma-Aldrich), dimethyl formamide (Acros), DMSO (Agros), ethanol (Fisher Scientific, Doornik, Belgium), glycerol (Acros), isopropanol (Chemlab), methanol (Chemlab), polyethylene glycol-400 (Fluka, Bornem, Belgium), propylene glycol (Certa, Eigenbrakel, Belgium), solketal (Merck, Overijse, Belgium). Statistical analyses were done using chi-square in Microsoft Excel.
Twelve solvents and 2 carriers – chosen based solely on their potential utility for the solubilization and delivery of a structurally diverse range of small molecules – were analyzed for their effects on zebrafish embryos and larvae. The solvents included acetone, acetonitrile, butanone, dimethyl formamide, DMSO, ethanol, glycerol, isopropanol, methanol, polyethylene glycol (PEG-400), propylene glycol, and solketal, and the carriers included albumin (BSA) and cyclodextrin (2-hydroxypropyl-beta-cyclodextrin, or HPBCD). […] For this initial study, the effects of a 24-hour exposure to each solvent and carrier was analyzed using embryos and larvae at the following developmental stages: 2–4 cell, 4 hours-post fertilization (hpf), and 1, 2, 3, 4, and 7 days post-fertilization (dpf).

early embryos = system: early embryos; set-up: method as in PMID 18031801; conditions: solutions containing between 5 and 10% of this solvent; cited from earlier work

With `CC(O)CO` (stereo not shown) [Propylene glycol] as the molecule, how does the “Maximum-tolerated concentration (MTC)” value ([1]; exposure for 24 hours beginning at 1 dpf) read?
Its value is greater than 2.5%.

And the “Maximum-tolerated concentration (MTC)” value ([1]; exposure for 24 hours beginning at 2 dpf)?
The value was greater than 2.5%.

What about the “Maximum-tolerated concentration (MTC)” value ([1]; exposure for 24 hours beginning at 2–4 cell stage) of the same molecule?
The value was greater than 2.5%.

And the “Maximum-tolerated concentration (MTC)” value ([1]; exposure for 24 hours beginning at 3 dpf)?
Its value is 2%.

And the “Maximum-tolerated concentration (MTC)” value ([1]; exposure for 24 hours beginning at 4 dpf)?
The value was 1.5%.

What about the “Maximum-tolerated concentration (MTC)” value ([1]; exposure for 24 hours beginning at 4 hpf) of the same molecule?
The value was greater than 2.5%.

What about the “Maximum-tolerated concentration (MTC)” value ([1]; exposure for 24 hours beginning at 5 dpf) of the same molecule?
The value was greater than 2.5%.

And the “Maximum-tolerated concentration (MTC)” value ([1]; exposure for 24 hours beginning at 7 dpf)?
The value was 1.5%.

And the “MTC / tolerated concentration” value ([1]; over all or most developmental stages analyzed, 24-hour exposure)?
The value was “at least 2.5%”.

What about the “Toxicity of brief exposures to cryoprotectant solutions” value (early embryos) of the same molecule?
The value was “toxic”.
